Patent US12539311B2, “Short-acting heparin-based anticoagulant compounds and methods” (The University of North Carolina at Chapel Hill, priority 2017, dated 2026)
Where two headings read alike, the source gives them in different places. Each block holds one molecule with its values, some of them ahead of it.

Assays:
antithrombin (AT) [1] = target: T1, antithrombin (AT) (Homo sapiens, UniProt P01008); assay: AT-binding affinity analysis using isothermal titration calorimetry (ITC)
platelet factor 4 = target: T2, platelet factor 4 (Homo sapiens, UniProt P02776); assay: Risk of heparin-induced thrombocytopenia (HIT) / binding to platelet factor 4; details: expected from size (smaller than 12-mers do not bind platelet factor 4)
T2 sequence (P02776 32-101): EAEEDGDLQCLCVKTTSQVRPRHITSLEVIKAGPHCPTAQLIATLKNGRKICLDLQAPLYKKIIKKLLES

[2] = Clearance of oligosaccharides from the drug-treated animals (plasma concentration against time); format: in vivo, Lewis rats
Procedure: (§1) All studies were performed under an Institutional Animal Care and Use Committee (IACUC)-approved protocol at the University of North Carolina, following Public Health Service guidelines for laboratory animal care and use. Sixteen 400-g Lewis rats were equally divided into four groups. […] Blood was then drawn at specified time points (0.5, 1, 2, 4, 8 hours) after the compounds had been administered, with one sample taken just before administration. 0.8 mL of blood was drawn from the contralateral femoral/saphenous vein into 150 mM citrate at 0.5, 1, 2, 4 and 8 hours following injection of the compounds, with one sample drawn immediately prior to injection. The samples were centrifuged to obtain approximately 400 μL of plasma. The blood samples were subjected to FXa activity analysis. Saline was given periodically subcutaneously to maintain fluid volume.
Using a calibration curve generated for each compound, the concentration of compound in the reaction mixture was read off for each corresponding FXa activity percentage. The average plasma concentration and standard deviation between the 4 rats in each group were calculated for each time point; these values were used to plot a graph of plasma concentration against time.

FXa = assay: Determination of anti-FXa effect in vivo; design: species or system Lewis rats; details: rat, intravenous; for persistence of anti-FXa effect in vivo: blood drawn 0.5-8 hours
Procedure: as §1

antithrombin (AT) [3] = target: T1, antithrombin (AT); details: affinity coelectrophoresis, reported in a previous publication; read-out: Binding affinity (Kd) to AT; cited from earlier work
antithrombin (AT) [4] = target: T1, antithrombin (AT); details: reported in a previous publication, method not given, cited from earlier work

T1 sequence (P01008 33-464): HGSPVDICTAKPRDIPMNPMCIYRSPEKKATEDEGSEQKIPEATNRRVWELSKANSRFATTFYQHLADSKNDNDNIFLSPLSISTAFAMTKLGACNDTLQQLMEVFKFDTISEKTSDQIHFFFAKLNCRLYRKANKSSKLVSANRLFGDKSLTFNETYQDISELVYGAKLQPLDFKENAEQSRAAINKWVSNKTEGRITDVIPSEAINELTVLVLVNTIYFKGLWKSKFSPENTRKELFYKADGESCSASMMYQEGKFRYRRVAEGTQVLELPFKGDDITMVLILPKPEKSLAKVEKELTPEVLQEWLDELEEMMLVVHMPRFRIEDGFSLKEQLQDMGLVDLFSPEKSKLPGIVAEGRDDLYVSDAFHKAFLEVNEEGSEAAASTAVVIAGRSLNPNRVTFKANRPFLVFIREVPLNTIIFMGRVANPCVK

- Binding affinity (Kd) to AT (antithrombin (AT) [1]; ITC): No binding
SMILES: O=C(O)C1OC(OC2C(COS(=O)(=O)O)OC(OC3C(C(=O)O)OC(OC4C(COS(=O)(=O)O)OC(OC5C(C(=O)O)OC(Oc6ccc([N+](=O)[O-])cc6)C(O)C5O)C(NS(=O)(=O)O)C4OS(=O)(=O)O)C(OS(=O)(=O)O)C3O)C(NS(=O)(=O)O)C2O)C(O)C(O)C1OC1OC(COS(=O)(=O)O)C(O)C(O)C1NS(=O)(=O)O (centres unmarked) [Comp 2, GlcNS6S-GlcA-GlcNS6S-IdoA2S-GlcNS3S6S-GlcA-pNP]

- Binding affinity (Kd) to AT (antithrombin (AT) [1]; ITC): No binding^c
SMILES: O=C(O)C1OC(OC2C(CO)OC(OC3C(C(=O)O)OC(OC4C(CO)OC(OC5C(C(=O)O)OC(OC6C(CO)OC(OC7C(C(=O)O)OC(Oc8ccc([N+](=O)[O-])cc8)C(O)C7O)C(NS(=O)(=O)O)C6O)C(OS(=O)(=O)O)C5O)C(NS(=O)(=O)O)C4OS(=O)(=O)O)C(OS(=O)(=O)O)C3O)C(NS(=O)(=O)O)C2O)C(O)C(O)C1OC1OC(CO)C(O)C(O)C1NS(=O)(=O)O (centres unmarked) [Comp 4]

- risk of HIT (platelet factor 4): very low risk of HIT
- clearance rate faster than that of fondaparinux ([2]; in a rat or mouse model): at least 50%
- Kd (antithrombin (AT) [1]; ITC): 5.1 ± 1.4 nM
- binding to AT (in words) (antithrombin (AT) [1]; listed as Compound 5): binds to AT
- binding to AT (in words) (antithrombin (AT) [1]; listed as compound 5): binds to AT tightly
SMILES: O=C(O)C1OC(OC2C(COS(=O)(=O)O)OC(OC3C(C(=O)O)OC(OC4C(COS(=O)(=O)O)OC(OC5C(C(=O)O)OC(OC6C(COS(=O)(=O)O)OC(OC7C(C(=O)O)OC(Oc8ccc([N+](=O)[O-])cc8)C(O)C7O)C(NS(=O)(=O)O)C6O)C(OS(=O)(=O)O)C5O)C(NS(=O)(=O)O)C4OS(=O)(=O)O)C(OS(=O)(=O)O)C3O)C(NS(=O)(=O)O)C2O)C(O)C(O)C1OC1OC(COS(=O)(=O)O)C(O)C(O)C1NS(=O)(=O)O (centres unmarked) [Comp 5]
- clearance in vivo (in words) ([2]; rat, compared with fondaparinux and compound 11): cleared faster from the animal in the first 2 hours
- persistence of anti-FXa effect in vivo (FXa): diminished after 4 hours
- anti-FXa potency in vivo (FXa; within 30 min after administration): comparable anti-FXa potency to that of fondaparinux and compound 11

SMILES: CC(=O)NC1C(OC2C(C(=O)O)OC(OC3C(COS(=O)(=O)O)OC(OC4C(C(=O)O)OC(OC5C(COS(=O)(=O)O)OC(OC6C(C(=O)O)OC(OC7C(COS(=O)(=O)O)OC(OC8C(C(=O)O)OC(Oc9ccc([N+](=O)[O-])cc9)C(O)C8O)C(NS(=O)(=O)O)C7O)C(OS(=O)(=O)O)C6O)C(NS(=O)(=O)O)C5O)C(OS(=O)(=O)O)C4O)C(NS(=O)(=O)O)C3OS(=O)(=O)O)C(O)C2O)OC(COS(=O)(=O)O)C(O)C1O (centres unmarked) [Comp 11, reference compound]
- persistence of anti-FXa effect in vivo (FXa): persisted after 8 hours
- Kd (antithrombin (AT) [3]): 8 ± 3 nM

SMILES: O=C(O)C1OC(OC2C(COS(=O)(=O)O)OC(OC3C(C(=O)O)OC(OC4C(COS(=O)(=O)O)OC(OC5C(C(=O)O)OC(Oc6ccc([N+](=O)[O-])cc6)C(O)C5O)C(NS(=O)(=O)O)C4O)C(OS(=O)(=O)O)C3O)C(NS(=O)(=O)O)C2OS(=O)(=O)O)C(O)C(O)C1OC1OC(COS(=O)(=O)O)C(O)C(O)C1NS(=O)(=O)O (centres unmarked) [GlcA2S-containing 6-mer, GlcNS6S-GlcA-GlcNS3S6S-GlcA2S-GlcNS6S-GlcA-pNP]
- Binding affinity (Kd) to AT (antithrombin (AT) [4]): No binding^d

SMILES: O=C(O)C1OC(OC2C(COS(=O)(=O)O)OC(OC3C(C(=O)O)OC(OC4C(COS(=O)(=O)O)OC(OC5C(C(=O)O)OC(Oc6ccc([N+](=O)[O-])cc6)C(O)C5O)C(NS(=O)(=O)O)C4O)C(O)C3O)C(NS(=O)(=O)O)C2OS(=O)(=O)O)C(O)C(O)C1OC1OC(COS(=O)(=O)O)C(O)C(O)C1NS(=O)(=O)O (centres unmarked) [IdoA-containing 6-mer]
- Kd (antithrombin (AT) [4]; read-out: Binding affinity (Kd) to AT): 32.6 ± 5.3 nM
